PubChem BioAssay AID330 (DTP/NCI, 2004)
“And” between values parts separate entries of the source, which are not always exact repeats. Equal entries are not always repeated. Toxic doses and inconclusive results are not listed.

Test system: P388 leukemia ip, CD2F1 mice, survival T/C
Assay: NCI In Vivo Anticancer Drug Screen. Data for tumor model P388 Leukemia (intraperitoneal) in CD2F1 (CDF1) mice
Conditions: endpoint: median survival time, higher = longer survival
Procedure, shortened: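 Mice carrying the transplanted tumor received test compound or vehicle. Survival was recorded in each group, and the value is the treated-group measurement divided by that of the vehicle-treated control group.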

[1] = dose: 50.0 mg/kg/injection, schedule: Q01DX009 (ip), vehicle: saline with Tween-80
[2] = dose: 100.0 mg/kg/injection, schedule: Q01DX009 (ip), vehicle: saline with Tween-80
[3] = dose: 200.0 mg/kg/injection, schedule: Q01DX009 (ip), vehicle: saline with Tween-80
[4] = dose: 50.0 mg/kg/injection, schedule: Q01DX005 (ip), vehicle: Klucel (hydroxypropylcellulose) (HPC)
[5] = dose: 100.0 mg/kg/injection, schedule: Q01DX005 (ip), vehicle: Klucel (hydroxypropylcellulose) (HPC)
[6] = dose: 200.0 mg/kg/injection, schedule: Q01DX005 (ip), vehicle: Klucel (hydroxypropylcellulose) (HPC)
[7] = dose: 50.0 mg/kg/injection, schedule: Q01DX005 (ip), vehicle: saline with Tween-80
[8] = dose: 100.0 mg/kg/injection, schedule: Q01DX005 (ip), vehicle: saline with Tween-80
[9] = dose: 200.0 mg/kg/injection, schedule: Q01DX005 (ip), vehicle: saline with Tween-80
[10] = dose: 25.0 mg/kg/injection, schedule: Q01DX009 (ip), vehicle: other
[11] = dose: 50.0 mg/kg/injection, schedule: Q01DX009 (ip), vehicle: other
[12] = dose: 50.0 mg/kg/injection, schedule: Q01DX009 (ip), vehicle: Klucel (hydroxypropylcellulose) (HPC)
[13] = dose: 100.0 mg/kg/injection, schedule: Q01DX009 (ip), vehicle: Klucel (hydroxypropylcellulose) (HPC)
[14] = dose: 200.0 mg/kg/injection, schedule: Q01DX009 (ip), vehicle: Klucel (hydroxypropylcellulose) (HPC)

For `Cc1ccc(S(=O)(=O)NC(=O)O/N=C/c2ccc3c(c2)OCO3)cc1`, the T/C [1] was 100 % of control, the T/C [2] was 97 % of control and the T/C [3] was 100 % of control.

With `COc1cc(OC)c(NC(=O)C(Sc2nc(C)cc(C)c2C#N)c2ccccc2)cc1Cl` (configuration not stated) the T/C (dose: 12.5 mg/kg/injection, schedule: Q01DX005 (ip), vehicle: Klucel (hydroxypropylcellulose) (HPC)) was 89 % of control, the T/C (dose: 25.0 mg/kg/injection, schedule: Q01DX005 (ip), vehicle: Klucel (hydroxypropylcellulose) (HPC)) was 92 % of control and 93 % of control and the T/C [4] was 100 % of control and 93 % of control. For the same compound, the T/C [5] was 98 % of control and the T/C [6] was 87 % of control.

With `O=c1[nH]c2nc(Cl)nc(Cl)c2[nH]1` the T/C [7] was 98 % of control, the T/C [8] was 94 % of control and the T/C [9] was 93 % of control.

With `O=C1NC(=O)c2c3ccc(c21)CCc1ccc(c2c1C(=O)NC2=O)CC3` the T/C [1] was 97 % of control, the T/C [2] was 92 % of control and the T/C [3] was 92 % of control.

`CCC1(c2cccc(C=O)c2)CCCCN(C)C1` (configuration not stated) was tested, and the T/C (dose: 12.5 mg/kg/injection, schedule: Q01DX005 (ip), vehicle: saline) was 99 % of control, the T/C (dose: 25.0 mg/kg/injection, schedule: Q01DX005 (ip), vehicle: saline) was 97 % of control and the T/C (dose: 50.0 mg/kg/injection, schedule: Q01DX005 (ip), vehicle: saline) was 97 % of control.

`CCOC(=O)C(C)(C)c1nc[nH]c1[N+](=O)[O-]` was tested, and the T/C (dose: 12.5 mg/kg/injection, schedule: Q04DX003 (ip), vehicle: saline with Tween-80) was 100 % of control, the T/C (dose: 25.0 mg/kg/injection, schedule: Q04DX003 (ip), vehicle: saline with Tween-80) was 104 % of control and the T/C (dose: 50.0 mg/kg/injection, schedule: Q04DX003 (ip), vehicle: saline with Tween-80) was 100 % of control. For the same compound, the T/C (dose: 200.0 mg/kg/injection, schedule: Q04DX003 (ip), vehicle: saline with Tween-80) was 98 % of control and the T/C (dose: 400.0 mg/kg/injection, schedule: Q04DX003 (ip), vehicle: saline with Tween-80) was 101 % of control.

`CCCNC(C)(C)C(SS)c1ccc(C(F)(F)F)cc1` (configuration not stated) was tested, and the T/C (dose: 12.5 mg/kg/injection, schedule: Q01DX009 (ip), vehicle: other) was 100 % of control, the T/C [10] was 100 % of control and the T/C [11] was 109 % of control.

With `Cc1cc2c(cc1C)-c1nn(-c3ccccc3)c(-c3ccc(Cl)cc3)c1CCO2` the T/C (dose: 12.5 mg/kg/injection, schedule: Q01DX005 (ip), vehicle: saline with Tween-80) was 92 % of control, the T/C (dose: 25.0 mg/kg/injection, schedule: Q01DX005 (ip), vehicle: saline with Tween-80) was 99 % of control and the T/C [7] was 93 % of control and 94 % of control.

`OC(C(Br)CBr)C(O)C(Br)CBr` (configuration not stated) was tested, and the T/C [12] was 105 % of control, the T/C [13] was 110 % of control and the T/C [14] was 112 % of control.

`O=C(NC1COB(c2cc(C(F)(F)F)cc(C(F)(F)F)c2)OC1c1ccc([N+](=O)[O-])cc1)C(Cl)Cl` (configuration not stated) was tested, and the T/C (dose: 60.0 mg/kg/injection, schedule: Q01DX005 (ip), vehicle: Klucel (hydroxypropylcellulose) (HPC)) was 100 % of control, the T/C (dose: 120.0 mg/kg/injection, schedule: Q01DX005 (ip), vehicle: Klucel (hydroxypropylcellulose) (HPC)) was 100 % of control and the T/C (dose: 240.0 mg/kg/injection, schedule: Q01DX005 (ip), vehicle: Klucel (hydroxypropylcellulose) (HPC)) was 99 % of control.

In the case of `Cc1cc(NCCCCCCCCNc2cc(C)nc3cc([N+](=O)[O-])ccc23)c2ccc([N+](=O)[O-])cc2n1`, the T/C (dose: 12.5 mg/kg/injection, schedule: Q01DX009 (ip), vehicle: water) is reported as 110 % of control and the T/C (dose: 25.0 mg/kg/injection, schedule: Q01DX009 (ip), vehicle: water) is reported as 101 % of control.

With `Cc1cc(C)c(S(=O)(=O)N/N=C(\CBr)c2ccccc2)c(C)c1` the T/C (dose: 7.5 mg/kg/injection, schedule: Q01DX005 (ip), vehicle: saline with Tween-80) was 97 % of control, the T/C (dose: 15.0 mg/kg/injection, schedule: Q01DX005 (ip), vehicle: saline with Tween-80) was 91 % of control and the T/C (dose: 30.0 mg/kg/injection, schedule: Q01DX005 (ip), vehicle: saline with Tween-80) was 102 % of control. The T/C (dose: 240.0 mg/kg/injection, schedule: Q01DX005 (ip), vehicle: saline with Tween-80) was 89 % of control.

`C[P+](C)(C)C` was tested, and the T/C (dose: 60.0 mg/kg/injection, schedule: Q01DX005 (ip), vehicle: saline with Tween-80) was 87 % of control and the T/C (dose: 120.0 mg/kg/injection, schedule: Q01DX005 (ip), vehicle: saline with Tween-80) was 93 % of control.

For `COc1ccc(NC(=O)C2C(=O)C(=O)N(c3ccc(OC)cc3)C2=O)cc1` (configuration not stated), the T/C (dose: 100.0 mg/kg/injection, schedule: Q04DX002 (ip), vehicle: saline with Tween-80) was 100 % of control and the T/C (dose: 200.0 mg/kg/injection, schedule: Q04DX002 (ip), vehicle: saline with Tween-80) was 101 % of control.

For `OC(C(=S)N1CCCC1)(c1ccccc1)c1ccccc1`, the T/C [12] was 103 % of control, the T/C [13] was 103 % of control and the T/C [14] was 100 % of control.

In the case of `COc1ccc(C)c2c(NCCCCCCCCNc3c4ccccc4nc4c(OC)ccc(C)c34)c3ccccc3nc12`, the T/C (dose: 2.5 mg/kg/injection, schedule: Q01DX009 (ip), vehicle: water) is reported as 100 % of control, the T/C (dose: 5.0 mg/kg/injection, schedule: Q01DX009 (ip), vehicle: water) is reported as 113 % of control and the T/C (dose: 10.0 mg/kg/injection, schedule: Q01DX009 (ip), vehicle: water) is reported as 105 % of control.

For `COc1ccc2c(c1)CN(CCc1ccccc1)CO2`, the T/C [7] was 101 % of control, the T/C [8] was 101 % of control and the T/C [9] was 97 % of control.

`CC(=Nc1ccc(F)cc1)C1C(=O)c2ccccc2C1=O` was tested, and the T/C [4] was 100 % of control, the T/C [5] was 100 % of control and the T/C [6] was 100 % of control.

In the case of `Cn1c(=O)c2nc(-c3ccccn3)cnc2n(C)c1=O`, the T/C (dose: 25.0 mg/kg/injection, schedule: Q01DX001 (ip), vehicle: Klucel (hydroxypropylcellulose) (HPC)) is reported as 116 % of control, the T/C (dose: 50.0 mg/kg/injection, schedule: Q01DX001 (ip), vehicle: Klucel (hydroxypropylcellulose) (HPC)) is reported as 106 % of control and the T/C (dose: 100.0 mg/kg/injection, schedule: Q01DX001 (ip), vehicle: Klucel (hydroxypropylcellulose) (HPC)) is reported as 100 % of control and 122 % of control and 92 % of control. For the same compound, the T/C (dose: 200.0 mg/kg/injection, schedule: Q01DX001 (ip), vehicle: Klucel (hydroxypropylcellulose) (HPC)) was 95 % of control (2×) and 96 % of control and the T/C (dose: 400.0 mg/kg/injection, schedule: Q01DX001 (ip), vehicle: Klucel (hydroxypropylcellulose) (HPC)) was 94 % of control and 95 % of control.

With `NC1=NN(S(=O)(=O)c2ccccc2)CC1` the T/C [4] was 94 % of control, the T/C [5] was 99 % of control and the T/C [6] was 98 % of control.

For `Cc1c2ccccc2c(CSC(=N)N)c2ccccc12`, the T/C (dose: 0.44 mg/kg/injection, schedule: Q01DX009 (ip), vehicle: saline) was 110 % of control, the T/C (dose: 0.66 mg/kg/injection, schedule: Q01DX009 (ip), vehicle: saline) was 110 % of control and the T/C (dose: 1.0 mg/kg/injection, schedule: Q01DX009 (ip), vehicle: saline) was 110 % of control. The T/C (dose: 1.47 mg/kg/injection, schedule: Q01DX009 (ip), vehicle: saline) was 160 % of control, the T/C (dose: 1.5 mg/kg/injection, schedule: Q01DX009 (ip), vehicle: saline) was 105 % of control and 120 % of control and the T/C (dose: 2.2 mg/kg/injection, schedule: Q01DX009 (ip), vehicle: saline) was 160 % of control. The T/C (dose: 3.3 mg/kg/injection, schedule: Q01DX009 (ip), vehicle: saline) was 165 % of control and the T/C (dose: 5.0 mg/kg/injection, schedule: Q01DX009 (ip), vehicle: saline) was 150 % of control and 185 % of control.

For `COc1cc(C2(O)c3cc4c(cc3CCN2C)OCO4)cc(OC)c1OC` (configuration not stated), the T/C [4] was 97 % of control, the T/C [5] was 96 % of control and the T/C [6] was 90 % of control.

In the case of `O=C(O)c1ccccc1C(c1ccccc1)c1ccccc1`, the T/C (dose: 25.0 mg/kg/injection, schedule: Q01DX009 (ip), vehicle: saline with Tween-80) is reported as 100 % of control, the T/C [1] is reported as 100 % of control and the T/C [2] is reported as 100 % of control.

In the case of `CSc1ccc2c(NCCCCCCCCNc3c4ccccc4nc4cc(SC)ccc34)c3ccccc3nc2c1`, the T/C (dose: 0.63 mg/kg/injection, schedule: Q01DX009 (ip), vehicle: other) is reported as 117 % of control, the T/C (dose: 1.25 mg/kg/injection, schedule: Q01DX009 (ip), vehicle: other) is reported as 119 % of control and the T/C (dose: 2.5 mg/kg/injection, schedule: Q01DX009 (ip), vehicle: other) is reported as 123 % of control. The T/C (dose: 10.0 mg/kg/injection, schedule: Q01DX009 (ip), vehicle: other) was 122 % of control.

For `CC(=O)N(C)N(Cc1ccc([N+](=O)[O-])cc1)C(C)=O`, the T/C [10] was 95 % of control, the T/C [11] was 102 % of control and the T/C (dose: 100.0 mg/kg/injection, schedule: Q01DX009 (ip), vehicle: other) was 93 % of control. The T/C (dose: 200.0 mg/kg/injection, schedule: Q01DX009 (ip), vehicle: other) was 93 % of control and the T/C (dose: 400.0 mg/kg/injection, schedule: Q01DX009 (ip), vehicle: other) was 89 % of control.
